Test results as given in EP0326329B1, “Quinazoline derivatives useful as insecticides” (Dow AgroSciences LLC, priority 1988, dated 1989).

Columns and labels:
Format in all cases: in vivo
[1] = tested on: Erysiphe graminis tritici (powdery mildew); assay: Greenhouse Test 1, foliar spray fungicide screen (POWD MDEW), host wheat; conditions: disease control rating, 400 ppm (+++ at 100 ppm)
[2] = tested on: Pyricularia oryzae (rice blast); conditions: disease control rating, foliar spray, host rice; 400 ppm (+++ at 100 ppm)
[3] = tested on: Puccinia recondita tritici (leaf rust); assay: Greenhouse Test 1, foliar spray fungicide screen (LEAF RUST), host wheat; conditions: disease control rating, 400 ppm (+++ at 100 ppm)
[4] = tested on: Botrytis cinerea (gray mold); assay: Greenhouse Test 1, foliar spray fungicide screen (GRAY MOLD), host grape berries; conditions: disease control rating, 400 ppm (+++ at 100 ppm)
[5] = tested on: Pseudoperonospora cubensis (downy mildew); assay: Greenhouse Test 1, foliar spray fungicide screen (DOWN MDEW), host squash; conditions: disease control rating, 400 ppm (+++ at 100 ppm)
[6] = tested on: Southern corn rootworm (Diabrotica undecimpuctata howardi Barber); assay: Mite/insect screen, soil treatment (CRW); conditions: Diabrotica, percent mortality, soil treatment, read-out: CRW RESULTS %; for mortality at 24 ppm: CRW rate 24.00 ppm; for mortality at 12 ppm: CRW rate 12.00 ppm
Experimental: (§1) The compounds of Examples 1-203 were tested for miticidal and insecticidal activity in the following mite/insect screen.
(§2) Each test compound was formulated by dissolving the compound in acetone/alcohol (50:50) mixture containing 23 g of "TOXIMUL R" (sulfonate/nonionic emulsifier blend) and 13 g of "TOXIMUL S" (sulfonate/nonionic emulsifier blend) per liter. These mixtures were then diluted with water to give the indicated concentrations.
Activity on Southern corn rootworm (Diabrotica undecimpuctata howardi Barber) was evaluated by adding two ml of tap water, a presoaked corn seed, and 15 g of dry sandy soil to a one ounce plastic container. The soil was treated with 1 mL of test solution containing a pre-determined concentration of test compound. After six to 12 hours of drying, five 2-3 instar corn rootworm larvae were added to the individual cups, which were then capped and held at 23°C.
(§3) After standard exposure periods, percent mortality and phytotoxicity were evaluated. […]

[7] = tested on: southern armyworm (Spodopetra eridania Cramer); assay: Mite/insect screen, sprayed squash leaves (SAW); conditions: Spodoptera eridania, percent mortality, read-out: SAW RESULTS %; for mortality at 400 ppm: spray rate 400 ppm; for mortality at 200 ppm: spray rate 200 ppm
Experimental: as §1, §2
(§4) Other plants in the same treatment pot were left uninfested. The leaves were then sprayed with 5 ml of test solution using a DeVilbiss atomizing sprayer at 10 psi. Both surfaces of the leaves were covered until runoff, and then allowed to dry for one hour. Two uninfested leaves were then excised and placed into a Petri dish containing larval southern armyworm (Spodopetra eridania Cramer).
as §3

[8] = tested on: Twospotted spider mites (Tetranychus urticae Koch); assay: Mite/insect screen, sprayed squash cotyledons (SM); conditions: Tetranychus urticae, percent mortality, read-out: SM RESULTS %; for mortality at 400 ppm: spray rate 400 ppm; for mortality at 200 ppm: spray rate 200 ppm
Experimental: as §1, §2, §4, §3

[9] = tested on: melon aphids (Aphis gossypii Glover); assay: Mite/insect screen, sprayed squash cotyledons (MA); conditions: Aphis gossypii, percent mortality, read-out: MA RESULTS %; for mortality at 400 ppm: spray rate 400 ppm; for mortality at 200 ppm: spray rate 200 ppm
Experimental: as §1, §2, §4, §3

| SMILES | POWD MDEW [1] | RICE BLAST [2] | LEAF RUST [3] | GRAY MOLD [4] | DOWN MDEW [5] | mortality at 24 ppm [6] [%] | mortality at 400 ppm [7] [%] | mortality at 400 ppm [8] [%] | mortality at 400 ppm [9] [%] | mortality at 12 ppm [6] [%] | mortality at 200 ppm [7] [%] | mortality at 200 ppm [8] [%] | mortality at 200 ppm [9] [%] |
| --- | --- | --- | --- | --- | --- | --- | --- | --- | --- | --- | --- | --- | --- |
| Fc1ccccc1CCOc1ncnc2ccccc12 [Example 48, 4-[2-(2-fluorophenyl)ethoxy]quinazoline] | +++ (+++ = 90-100% control at 100 ppm) | + (+ = 20-89% control at 400 ppm) | +++ (+++ = 90-100% control at 100 ppm) | - (- = 0-19% control at 400 ppm) | ++ (++ = 90-100% control at 400 ppm) | 0 | 0 | 90 | 100 |  |  |  |  |
| Clc1ccc2ncnc(NCCc3ccc(-c4ccccc4)cc3)c2c1 [Example 90, 6-chloro-N-[2-(1,1'-biphenyl)-4-ylethyl]-4-quinazolinamine] | + (+ = 20-89% control at 400 ppm) | + (+ = 20-89% control at 400 ppm) | + (+ = 20-89% control at 400 ppm) | - (- = 0-19% control at 400 ppm) | +++ (+++ = 90-100% control at 100 ppm) | 0 | 100 | 0 | 0 | 0 | 0 | 100 | 80 |
| COc1ccc(CCOc2ncnc3c(F)cccc23)cc1OC [Example 112, 8-fluoro-4-[2-(3,4-dimethoxyphenyl)ethoxy]quinazoline] | + (+ = 20-89% control at 400 ppm) | +++ (+++ = 90-100% control at 100 ppm) | +++ (+++ = 90-100% control at 100 ppm) | - (- = 0-19% control at 400 ppm) | +++ (+++ = 90-100% control at 100 ppm) | 0 | 0 | 0 | 0 | 0 | 0 | 0 | 80 |
| Cc1cccc2c(OCCc3ccc(C(C)(C)C)cc3)ncnc12 [Example 139, 8-methyl-4-[2-[4-(1,1-dimethylethyl)phenyl]ethoxy]quinazoline] | + (+ = 20-89% control at 400 ppm) | +++ (+++ = 90-100% control at 100 ppm) | + (+ = 20-89% control at 400 ppm) | - (- = 0-19% control at 400 ppm) | ++ (++ = 90-100% control at 400 ppm) | 0 | 0 | 100 | 0 | 0 | 0 |  | 30 |
| Fc1cccc2c(OCCc3ccc4ccccc4c3)ncnc12 [Example 66, 8-fluoro-4-[2-(2-naphthyl)ethoxy]quinazoline] | +++ (+++ = 90-100% control at 100 ppm) | +++ (+++ = 90-100% control at 100 ppm) | +++ (+++ = 90-100% control at 100 ppm) | - (- = 0-19% control at 400 ppm) | +++ (+++ = 90-100% control at 100 ppm) | 0 | 0 | 0 | 0 |  |  |  |  |
| c1ccc2cc(CCOc3ncnc4ccccc34)ccc2c1 [Example 80, 4-[2-(2-naphthyl)ethoxy]quinazoline] | +++ (+++ = 90-100% control at 100 ppm) | +++ (+++ = 90-100% control at 100 ppm) | +++ (+++ = 90-100% control at 100 ppm) | - (- = 0-19% control at 400 ppm) | +++ (+++ = 90-100% control at 100 ppm) | 100 | 0 | 100 | 100 |  |  |  |  |
| Cc1ccc2ncnc(NCCc3cccc(Oc4ccccc4)c3)c2c1 [Example 190, 6-methyl-N-[2-(3-phenoxyphenyl)ethyl]-4-quinazolinamine] | +++ (+++ = 90-100% control at 100 ppm) | +++ (+++ = 90-100% control at 100 ppm) | +++ (+++ = 90-100% control at 100 ppm) | - (- = 0-19% control at 400 ppm) | +++ (+++ = 90-100% control at 100 ppm) | 0 | 0 | 0 | 0 | 0 | 0 | 80 | 40 |
| CC(C)Oc1cccc(CCOc2ncnc3ccccc23)c1 [Example 146, 4-[2-[3-(1-methylethoxy)phenyl]ethoxy]quinazoline] | ++ (++ = 90-100% control at 400 ppm) | +++ (+++ = 90-100% control at 100 ppm) | ++ (++ = 90-100% control at 400 ppm) | + (+ = 20-89% control at 400 ppm) | +++ (+++ = 90-100% control at 100 ppm) | 0 | 0 | 60 | 80 | 0 | 0 | 100 | 100 |
| CCOc1ccc(CCOc2ncnc3ccccc23)cc1 [Example 15, 4-[2-(4-ethoxyphenyl)ethoxy]quinazoline] | +++ (+++ = 90-100% control at 100 ppm) | +++ (+++ = 90-100% control at 100 ppm) | +++ (+++ = 90-100% control at 100 ppm) | - (- = 0-19% control at 400 ppm) | +++ (+++ = 90-100% control at 100 ppm) | 0 | 0 | 0 | 0 |  |  |  |  |
| CCC(COc1ncnc2ccccc12)c1ccc(-c2ccccc2)cc1 (stereo not drawn) [Example 142, 4-[2-(1,1'-biphenyl)-4-ylbutoxy]quinazoline] | + (+ = 20-89% control at 400 ppm) | ++ (++ = 90-100% control at 400 ppm) | + (+ = 20-89% control at 400 ppm) | - (- = 0-19% control at 400 ppm) | - (- = 0-19% control at 400 ppm) | 0 | 0 | 60 | 30 |  |  |  |  |
| CC(C)(C)c1ccc(CCOc2ncnc3c(F)cccc23)cc1 [Example 94, 8-fluoro-4-[2-[4-(t-butyl)phenyl]ethoxy]quinazoline] | +++ (+++ = 90-100% control at 100 ppm) | +++ (+++ = 90-100% control at 100 ppm) | +++ (+++ = 90-100% control at 100 ppm) | - (- = 0-19% control at 400 ppm) | +++ (+++ = 90-100% control at 100 ppm) | 0 | 100 | 0 | 0 | 0 | 100 | 100 | 80 |
| c1ccc2c(c1)Cc1cc(CCOc3ncnc4ccccc34)ccc1-2 [Example 20, 4-[2-(9H-fluoren-2-yl)ethoxy]quinazoline] | ++ (++ = 90-100% control at 400 ppm) | ++ (++ = 90-100% control at 400 ppm) | + (+ = 20-89% control at 400 ppm) |  | + (+ = 20-89% control at 400 ppm) | 100 | 60 | 100 | 100 |  |  |  |  |
| FC(F)(F)c1ccc(CCOc2ncnc3ccccc23)cc1 [Example 134, 4-[2-[4-(trifluoromethyl)phenyl]ethoxy]quinazoline] | +++ (+++ = 90-100% control at 100 ppm) | +++ (+++ = 90-100% control at 100 ppm) | +++ (+++ = 90-100% control at 100 ppm) |  |  | 0 | 100 | 100 | 100 | 0 | 60 | 90 | 100 |
